{"source": "paper PMC3953223", "about": "(Biochemistry, 2013)", "key": {"PfENR": {"molecular_target": "PfENR", "conditions": "cited from earlier work"}, "TgENR": {"molecular_target": "T1, TgENR (Toxoplasma gondii, UniProt Q6UCJ9)", "T1 sequence (Q6UCJ9 103-417 limits assumed)": "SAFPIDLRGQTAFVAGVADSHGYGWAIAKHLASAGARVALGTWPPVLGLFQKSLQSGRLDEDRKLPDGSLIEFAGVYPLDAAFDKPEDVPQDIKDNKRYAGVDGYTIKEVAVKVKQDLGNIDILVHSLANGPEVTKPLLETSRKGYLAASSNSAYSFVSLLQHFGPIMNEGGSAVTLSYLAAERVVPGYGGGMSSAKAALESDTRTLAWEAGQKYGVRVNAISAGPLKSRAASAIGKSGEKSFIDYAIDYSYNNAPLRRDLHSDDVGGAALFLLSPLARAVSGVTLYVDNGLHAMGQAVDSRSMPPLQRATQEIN", "assay": "Thermal shift assay, ligand binding to TgENR alone", "conditions": "read-out: Kd of NAD^+ binding to TgENR; TSA, binary complex"}, "[1]": {"tested_on": "T. gondii tachyzoites (RH-YFP)", "format": "cell-based, Toxoplasma gondii", "conditions": "72 h"}, "T. gondii parasites": {"tested_on": "T. gondii parasites", "conditions": "read-out: IC50, growth of T. gondii parasites; cited from earlier work"}}, "data": [{"smiles": "NC(=O)C1=CN([C@@H]2O[C@H](COP(=O)(O)OP(=O)(O)OC[C@H]3O[C@@H](n4cnc5c(N)ncnc54)[C@H](O)[C@@H]3O)[C@@H](O)[C@H]2O)C=CC1", "note": "[NADH, nicotinamide adenine dinucleotide]", "values": [{"measurement": "Kd", "setting": "PfENR; read-out: Kd for NADH, PfENR", "value": 51.6, "unit": "µM"}]}, {"smiles": "NC(=O)c1ccc[n+]([C@@H]2O[C@H](COP(=O)([O-])OP(=O)(O)OC[C@H]3O[C@@H](n4cnc5c(N)ncnc54)[C@H](O)[C@@H]3O)[C@@H](O)[C@H]2O)c1", "note": "[NAD^+]", "values": [{"measurement": "Kd", "setting": "TgENR", "value": 6000, "unit": "µM"}]}, {"smiles": "Oc1cc(Cl)ccc1Oc1ccc(Cl)cc1Cl", "note": "[Triclosan, triclosan]", "values": [{"measurement": "forward rate constant of tight binding complex formation", "setting": "PfENR; PfENR", "value": 0.055, "unit": "s⁻¹"}, {"measurement": "T. gondii MIC50", "setting": "[1]; RH-YFP tachyzoites in HFF, ± SEM", "value": "2.8 ± 0.2", "unit": "µM"}, {"measurement": "MIC50", "setting": "[1]; Toxoplasma gondii, read-out: T. gondii MIC50", "value": 2.8, "unit": "µM"}, {"measurement": "IC50", "setting": "T. gondii parasites", "value": "~0.2", "unit": "µM"}]}]}
